Source: PMC10656311, “Evaluation of the probable synergistic toxicity of selected potentiated antiretroviral and antibiotics on some aquatic biomarker organisms” (Environmental Monitoring and Assessment, 2023)
“And” between values parts separate entries of the source, which are not always exact repeats. Identical values can stand only once. “Also recorded” adds a separate entry of the source. Like-named read-outs stand apart in the source and are kept apart here.

Tests used:
[1] = tested on: Salmonella typhimurium TA100; assay: Ames mutagenicity test (agar plate method), strain TA100; conditions: for Number of revertant colonies per plate, Mean / Number of revertant colonies per plate, NR 1 / Number of revertant colonies per plate, NR 2 / Number of revertant colonies per plate, NR3 / mutagenic/cytotoxic effect (in words): TA 100; for Number of revertant colonies per plate, NR 1: plate 1; for Number of revertant colonies per plate, NR 2: plate 2; for Number of revertant colonies per plate, NR3: plate 3
Source text: The revertant bacteria are detected by their ability to grow in the absence of the amino acid required by the parent test strain. The Ames test method was employed to investigate the potential of a chemical to induce a mutagenic effect in exposed organisms. Three different Salmonella typhimurium bacteria strains ([TA98 P450], [TA100], and [TA100—P450], which simulate metabolic activation) were used in order to account for discrepancies in the way similar organisms (bacteria) may respond to test solutions.
Salmonella typhimurium bacteria were cultured on a freshly prepared nutrient broth medium (Merck, Germany), and allowed to stand overnight. Bacterial growth was confirmed by visual turbidity inspection. […] All experiments were carried out in triplicate. The mutagenicity of the PCs was further classified based on fuzzy logic four-gridded indices (Table 2).
A substance is deemed mutagenic if its mutation rate is twice or more than that of the background.
Salmonella typhimurium bacterial strains TA 98 P450, TA 100, or TA100 P450 were exposed to an equimolar concentration (10 and 100 µg/L) ternary cocktail mixtures of the L, C, and S in the Ames test.

[2] = tested on: Salmonella typhimurium TA98 P450; type: cell-based; conditions: for Number of revertant colonies per plate, NR 1: plate 1; for Number of revertant colonies per plate, NR 2: plate 2; for Number of revertant colonies per plate, NR3: plate 3
Description: (§1) Bacterial growth was confirmed by visual turbidity inspection. […] All experiments were carried out in triplicate.

Daphnia magna = conditions: for Mean mortality (n = 20): five daphnids per well, four replicates
[3] = tested on: root tip meristem cells of Allium cepa; assay: Allium cepa root tip microscopic examination (chromosomal aberrations); type: cell-based; conditions: 100 µg/L; for chromosomal aberrations observed in root tip meristem: light microscopy
Description: (§2) Whole-onions test specimens were grown at room temperature (in triplicate). The onions were initially grown for 2 days in tap water. Prior to growing them in tap water, the ring of the root, the primordia at the bottom of the onion bulb, was scraped with a sterile surgical blade to remove all existing root growth. After 2 days of tap water exposure, the lengths of the root fibers of each onion were measured and recorded. This was followed by exposure to the test solutions for another 2 days (tap water was used as the control). […] At the end of the exposure, the onion roots were cut 3 cm from the tip and placed in Carnoy’s fixative solution ([…] (Merck, Germany)) until further microscopic analysis.
This was followed by washing the root tips in distilled water, after which they were stained using Feulgen stain for 2–3 min. The stained root tips were then rinsed in distilled water, transferred onto clean glass microscope slides, and counter-stained with acetocarmine. […] The squashed onion root tips were thereafter imaged using a LEICA DM-750 light microscope at × 400 and × 1000 magnifications.
Microscopic evaluation of Allium cepa cells during mitosis was conducted to ascertain the impacts the L, C, and S test samples (lone and mixtures) will have on the genetic materials of the onion roots at cellular levels.

[4] = tested on: Salmonella typhimurium TA100 P450; assay: Ames mutagenicity test (agar plate method), strain TA100 P450; type: cell-based; conditions: for mutagenic/cytotoxic effect (in words) / Number of revertant colonies per plate, Mean: TA100 P450; for Number of revertant colonies per plate, NR 1 / Number of revertant colonies per plate, NR 2 / Number of revertant colonies per plate, NR3: TA 100 P450; for Number of revertant colonies per plate, NR 1: plate 1; for Number of revertant colonies per plate, NR 2: plate 2; for Number of revertant colonies per plate, NR3: plate 3
Description: as §1

Allium cepa = Allium cepa root length assay (phytotoxic inhibition of root growth); type: in vivo
Description: as §2
The test APCs and their mixtures in different combinations were investigated for their phytotoxic characteristics at 10 µg/L and 100 µg/L concentrations, using A. cepa bioassays. The root length assay relies on evaluating the root length of A. cepa as an indicator endpoint to assess the susceptibility of plants exposed to xenobiotics by evaluating physical impacts on their root growth. The ratio between the root length (mm) (RRL) after and before exposure to test solutions ( ^RLAERLBE ) was used as indices for the APCs’ phytotoxicity.

O=C(O)c1cn(C2CC2)c2cc(N3CCNCC3)c(F)cc2c1=O [Ciprofloxacin, ciprofloxacin]
Number of revertant colonies per plate, Mean ([1]; 10 µg/L): 140
Number of revertant colonies per plate, NR 1 ([1]; 10 µg/L): 140
Number of revertant colonies per plate, NR 2 ([1]; 10 µg/L): 170
Number of revertant colonies per plate, NR3 ([1]; 10 µg/L): 110
Number of revertant colonies per plate, Mean ([1]; 100 µg/L): 140
mutagenic/cytotoxic effect (in words) ([1]; 100 µg/L): did not individually exert cytotoxicity
Number of revertant colonies per plate, NR 1 ([1]; 100 µg/L): 130
Number of revertant colonies per plate, NR 2 ([1]; 100 µg/L): 140
Number of revertant colonies per plate, NR3 ([1]; 100 µg/L): 150
mutagenic/cytotoxic effect (in words) ([2]; 10 µg/L): did not exert either mutagenic or cytotoxic effects
mutagenic/cytotoxic effect (in words) ([2]; 100 µg/L): to a much lesser extent mutagenic; also recorded: did not individually exert cytotoxicity; also recorded: some level of mutagenic activities
Mean % mortality (Daphnia magna; 10 µg/L, 24 h): 10%
Mean mortality (n = 20) (Daphnia magna; 10 µg/L, 24 h): 0.50 ± 0.58
Mean % mortality (Daphnia magna; 10 µg/L, 48 h): 55%
Mean mortality (n = 20) (Daphnia magna; 10 µg/L, 48 h): 2.75 ± 0.50
Mean % mortality (Daphnia magna; 100 µg/L, 24 h): 50%
Mean mortality (n = 20) (Daphnia magna; 100 µg/L, 24 h): 2.5 ± 1.73
Mean % mortality (Daphnia magna; 100 µg/L, 48 h): 75%
Mean mortality (n = 20) (Daphnia magna; 100 µg/L, 48 h): 3.75 ± 1.26
chromosomal aberrations observed in root tip meristem [3]: uncoiling chromosome/irregular prophase
mutagenic/cytotoxic effect (in words) ([4]; 10 µg/L): did not exert either mutagenic or cytotoxic effects
mutagenic/cytotoxic effect (in words) ([4]; 100 µg/L): did not individually exert cytotoxicity

Nc1ccn([C@@H]2CS[C@H](CO)O2)c(=O)n1 [Lamivudine, lamivudine]
Ames test (mutagenicity) TA 100 [1]: b (key: Toxic (a) x<0.5; No mutagenicity (b) x≥0.5≤1.5; Mutagenic to a lesser extent (c) x>1.5<2.0; Significantly mutagenic (d) x≥2.0)
Number of revertant colonies per plate, Mean ([1]; 10 µg/L): 160
mutagenic/cytotoxic effect (in words) ([1]; 10 µg/L): did not exert either mutagenic or cytotoxic effects
Number of revertant colonies per plate, NR 1 ([1]; 10 µg/L): 190
Number of revertant colonies per plate, NR 2 ([1]; 10 µg/L): 150
Number of revertant colonies per plate, NR3 ([1]; 10 µg/L): 140
Number of revertant colonies per plate, Mean ([1]; 100 µg/L): 163
Number of revertant colonies per plate, NR 1 ([1]; 100 µg/L): 180
Number of revertant colonies per plate, NR 2 ([1]; 100 µg/L): 150
Number of revertant colonies per plate, NR3 ([1]; 100 µg/L): 160
A. cepa root exposure R.L (Allium cepa; 10 µg/L): -
A. cepa root exposure R.L (Allium cepa; 100 µg/L): +
Number of revertant colonies per plate, Mean ([2]; 10 µg/L): 16
mutagenic/cytotoxic effect (in words) ([2]; 10 µg/L): did not exert either mutagenic or cytotoxic effects
Number of revertant colonies per plate, NR 1 ([2]; 10 µg/L): 13
Number of revertant colonies per plate, NR 2 ([2]; 10 µg/L): 23
Number of revertant colonies per plate, NR3 ([2]; 10 µg/L): 13
Number of revertant colonies per plate, Mean ([2]; 100 µg/L): 18
mutagenic/cytotoxic effect (in words) ([2]; 100 µg/L): to a much lesser extent mutagenic; also recorded: some level of mutagenic activities
Number of revertant colonies per plate, NR 1 ([2]; 100 µg/L): 20
Number of revertant colonies per plate, NR 2 ([2]; 100 µg/L): 15
Number of revertant colonies per plate, NR3 ([2]; 100 µg/L): 18
Mean % mortality (Daphnia magna; 10 µg/L, 24 h): 10%
Mean mortality (n = 20) (Daphnia magna; 10 µg/L, 24 h): 0.50 ± 0.60
Mean % mortality (Daphnia magna; 10 µg/L, 48 h): 45%
Mean mortality (n = 20) (Daphnia magna; 10 µg/L, 48 h): 2.30 ± 1.00
Mean % mortality (Daphnia magna; 100 µg/L, 24 h): 85%
Mean mortality (n = 20) (Daphnia magna; 100 µg/L, 24 h): 4.30 ± 1.00
Mean % mortality (Daphnia magna; 100 µg/L, 48 h): 100%
Mean mortality (n = 20) (Daphnia magna; 100 µg/L, 48 h): 5.00 ± 0.00
LD50 as log concentration (Daphnia magna; 24 h): 1.533 log conc. (ppb)
LD50 as log concentration (Daphnia magna; 48 h): 1.091 log conc. (ppb) and 1.09 log conc. (ppb)
Toxic unit 24 hrs (Daphnia magna; toxic unit of the constituent in the LCS mixture, 24 h): 1.12
Toxic unit 48 hrs (Daphnia magna; toxic unit of the constituent in the LCS mixture, 48 h): 1.93
A. cepa root exposure C.A (chromosomal aberration) [3]: +
chromosomal aberrations observed in root tip meristem [3]: irregular prophase and metaphase
Number of revertant colonies per plate, Mean ([4]; 10 µg/L): 233
mutagenic/cytotoxic effect (in words) ([4]; 10 µg/L): did not exert either mutagenic or cytotoxic effects
Number of revertant colonies per plate, NR 1 ([4]; 10 µg/L): 200
Number of revertant colonies per plate, NR 2 ([4]; 10 µg/L): 200
Number of revertant colonies per plate, NR3 ([4]; 10 µg/L): 300
Number of revertant colonies per plate, Mean ([4]; 100 µg/L): 300
Number of revertant colonies per plate, NR 1 ([4]; 100 µg/L): 210
Number of revertant colonies per plate, NR 2 ([4]; 100 µg/L): 310
Number of revertant colonies per plate, NR3 ([4]; 100 µg/L): 380

Cc1cc(NS(=O)(=O)c2ccc(N)cc2)no1 [Sulfamethoxazole, sulfamethoxazole]
Number of revertant colonies per plate, Mean ([1]; 10 µg/L): 123
Number of revertant colonies per plate, NR 1 ([1]; 10 µg/L): 100
Number of revertant colonies per plate, NR 2 ([1]; 10 µg/L): 150
Number of revertant colonies per plate, NR3 ([1]; 10 µg/L): 120
Number of revertant colonies per plate, Mean ([1]; 100 µg/L): 117
Number of revertant colonies per plate, NR 1 ([1]; 100 µg/L): 110
Number of revertant colonies per plate, NR 2 ([1]; 100 µg/L): 110
Number of revertant colonies per plate, NR3 ([1]; 100 µg/L): 130
Mean % mortality (Daphnia magna; 10 µg/L, 24 h): 15%
Mean mortality (n = 20) (Daphnia magna; 10 µg/L, 24 h): 0.75 ± 0.50
Mean % mortality (Daphnia magna; 10 µg/L, 48 h): 30%
Mean mortality (n = 20) (Daphnia magna; 10 µg/L, 48 h): 1.50 ± 1.73
Mean % mortality (Daphnia magna; 100 µg/L, 24 h): 50%
Mean mortality (n = 20) (Daphnia magna; 100 µg/L, 24 h): 2.50 ± 0.58
Mean % mortality (Daphnia magna; 100 µg/L, 48 h): 95%
Mean mortality (n = 20) (Daphnia magna; 100 µg/L, 48 h): 4.75 ± 0.50
chromosomal aberrations observed in root tip meristem [3]: vagrant chromosome in anaphase and alignment anaphase
